From patent publication US10750743B2, “Pyridazinone herbicides” (E.I. DU PONT DE NEMOURS AND COMPANY, priority 2015, dated 2020)

Columns and labels:
Assay type in all cases: in vivo
[1] = tested on: barnyardgrass (Echinochloa crus-galli); experiment: Test B flooded paddy test, visual rating; details: Echinochloa crus-galli, 360 h; Flood, 250 g ai/ha, applied to paddy water, rated after 13 to 15 d; read-out: Barnyardgrass plant response rating (0 to 100 scale, 0 is no effect, 100 is complete control)
In short: (§1)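 Plants at the 2-leaf stage were flooded to 3 cm above soil, and test compounds were applied directly into the paddy water, which was held at that depth throughout. After 13 to 15 d in a greenhouse, injury was rated visually against untreated controls on a 0–100 scale (0 no effect, 100 complete control).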

[2] = tested on: ducksalad (Heteranthera limosa); experiment: Test B flooded paddy test, visual rating; details: Heteranthera limosa, 360 h; Flood, 250 g ai/ha, applied to paddy water, rated after 13 to 15 d; read-out: Ducksalad plant response rating (0 to 100 scale, 0 is no effect, 100 is complete control)
In short: as §1

[3] = tested on: sedge, umbrella (small-flower umbrella sedge, Cyperus difformis); experiment: Test B flooded paddy test, visual rating; details: Cyperus difformis, 360 h; Flood, 250 g ai/ha, applied to paddy water, rated after 13 to 15 d; read-out: Sedge, Umbrella plant response rating (0 to 100 scale, 0 is no effect, 100 is complete control)
In short: as §1

[4] = tested on: barnyardgrass (Echinochloa crus-galli); experiment: Test A postemergence application, visual injury rating; details: Echinochloa crus-galli, post-emergence, 240 h, 0 to 100 scale, 0 no effect, 100 complete control, read-out: Barnyardgrass plant response rating
In short: (§2)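 Seeds sown in a loam soil–sand blend received a directed preemergence soil spray of test chemical in a non-phytotoxic solvent mixture with surfactant. Postemergence plants were sprayed at 2 to 10 cm, one- to two-leaf stage. After approximately 10 d in greenhouse, injury was visually rated 0 (no effect) to 100 (complete control) against untreated controls.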

kochia (Kochia scoparia) [5] = experiment: as above
In short: as §2

[6] = tested on: ryegrass, It. (Italian ryegrass, Lolium multiflorum); experiment: as above
In short: as §2

[7] = tested on: galium (catchweed bedstraw, Galium aparine); experiment: as above
In short: as §2

[8] = tested on: pigweed (Amaranthus retroflexus); experiment: as above
In short: as §2

[9] = tested on: foxtail, giant (giant foxtail, Setaria faberii); experiment: as above
In short: as §2

corn (Zea mays) = experiment: as above
In short: as §2

[10] = tested on: wheat (Triticum aestivum); experiment: as above
In short: as §2

[11] = tested on: blackgrass (Alopecurus myosuroides); experiment: as above; details: Alopecurus myosuroides, post-emergence, 240 h, 0 to 100 scale, 0 no effect, 100 complete control, read-out: Blackgrass plant response rating
In short: as §2

[12] = tested on: ragweed (common ragweed, Ambrosia elatior); experiment: as above
In short: as §2

[13] = tested on: barnyardgrass (Echinochloa crus-galli); experiment: Test A preemergence, directed soil spray, visual injury rating; details: Echinochloa crus-galli, pre-emergence, 240 h, 0 is no effect, 100 is complete control, read-out: Plant response rating (0 to 100 scale), Barnyardgrass
In short: as §2

kochia (Kochia scoparia) [14] = experiment: as above; details: Bassia scoparia, pre-emergence, 240 h, 0 is no effect, 100 is complete control, read-out: Plant response rating (0 to 100 scale), Kochia
In short: as §2

[15] = tested on: ryegrass, It. (Italian ryegrass, Lolium multiflorum); experiment: as above; details: Lolium multiflorum, pre-emergence, 240 h, 0 is no effect, 100 is complete control, read-out: Plant response rating (0 to 100 scale), Ryegrass, It.
In short: as §2

[16] = tested on: pigweed (Amaranthus retroflexus); experiment: as above; details: Amaranthus retroflexus, pre-emergence, 240 h, 0 is no effect, 100 is complete control, read-out: Plant response rating (0 to 100 scale), Pigweed
In short: as §2

[17] = tested on: foxtail, giant (giant foxtail, Setaria faberii); experiment: as above; details: Setaria faberi, pre-emergence, 240 h, 0 is no effect, 100 is complete control, read-out: Plant response rating (0 to 100 scale), Foxtail, Giant
In short: as §2

[18] = tested on: ragweed (common ragweed, Ambrosia elatior); experiment: as above; details: Ambrosia artemisiifolia, pre-emergence, 240 h, 0 is no effect, 100 is complete control, read-out: Plant response rating (0 to 100 scale), Ragweed
In short: as §2

[19] = 31 g ai/ha, 0 is no effect, 100 is complete control

Question: What does the source list for `COc1c(C)nn(C)c(=O)c1-c1ccc(F)c2ccoc12` [Compound 69, 4-(4-fluoro-7-benzofuranyl)-5-methoxy-2,6-dimethyl-3(2H)-pyridazinone]?
Answer: pest or weed control at 250 g/ha [1]: 0%; pest or weed control at 250 g/ha [2]: 0%; pest or weed control at 250 g/ha [3]: 0%; pest or weed control at 31 g/ha ([4]; 31 g ai/ha): 0%; pest or weed control at 125 g/ha ([4]; 125 g ai/ha): 0%; Plant response rating (0 to 100 scale), Kochia (kochia (Kochia scoparia) [5]; [19]): 0; pest or weed control at 125 g/ha (kochia (Kochia scoparia) [5]; Bassia scoparia, post-emergence, 240 h, 125 g ai/ha, 0 to 100 scale, 0 no effect, 100 complete control, read-out: Kochia plant response rating): 0%; Plant response rating (0 to 100 scale), Ryegrass, It. [6, 19]: 0; pest or weed control at 125 g/ha ([6]; Lolium multiflorum, post-emergence, 240 h, 125 g ai/ha, 0 to 100 scale, 0 no effect, 100 complete control, read-out: Ryegrass, It. plant response rating): 0%; Plant response rating (0 to 100 scale), Galium [7, 19]: 0; pest or weed control at 125 g/ha ([7]; Galium, post-emergence, 240 h, 125 g ai/ha, 0 to 100 scale, 0 no effect, 100 complete control, read-out: Galium plant response rating): 0%; Plant response rating (0 to 100 scale), Pigweed [8, 19]: 0; pest or weed control at 125 g/ha ([8]; Amaranthus retroflexus, post-emergence, 240 h, 125 g ai/ha, 0 to 100 scale, 0 no effect, 100 complete control, read-out: Pigweed plant response rating): 0%; Plant response rating (0 to 100 scale), Foxtail, Giant [9, 19]: 0; pest or weed control at 125 g/ha ([9]; Setaria faberi, post-emergence, 240 h, 125 g ai/ha, 0 to 100 scale, 0 no effect, 100 complete control, read-out: Foxtail, Giant plant response rating): 0%; Plant response rating (0 to 100 scale), Corn (corn (Zea mays); [19]): 0; plant injury at 125 g/ha (corn (Zea mays); Zea mays, post-emergence, 240 h, 125 g ai/ha, 0 to 100 scale, 0 no effect, 100 complete control, read-out: Corn plant response rating): 0%; Plant response rating (0 to 100 scale), Wheat [10, 19]: 0; plant injury at 125 g/ha ([10]; Triticum aestivum, post-emergence, 240 h, 125 g ai/ha, 0 to 100 scale, 0 no effect, 100 complete control, read-out: Wheat plant response rating): 0%; pest or weed control at 31 g/ha ([11]; 31 g ai/ha): 0%; pest or weed control at 125 g/ha ([11]; 125 g ai/ha): 0%; Plant response rating (0 to 100 scale), Ragweed [12, 19]: 0; pest or weed control at 125 g/ha ([12]; Ambrosia artemisiifolia, post-emergence, 240 h, 125 g ai/ha, 0 to 100 scale, 0 no effect, 100 complete control, read-out: Ragweed plant response rating): 0%; pest or weed control at 31 g/ha ([13]; 31 g ai/ha): 0%; pest or weed control at 125 g/ha ([13]; 125 g ai/ha): 0%; pest or weed control at 31 g/ha (kochia (Kochia scoparia) [14]; 31 g ai/ha): 0%; pest or weed control at 125 g/ha (kochia (Kochia scoparia) [14]; 125 g ai/ha): 0%; pest or weed control at 31 g/ha ([15]; 31 g ai/ha): 0%; pest or weed control at 125 g/ha ([15]; 125 g ai/ha): 0%; pest or weed control at 31 g/ha ([16]; 31 g ai/ha): 0%; pest or weed control at 125 g/ha ([16]; 125 g ai/ha): 0%; pest or weed control at 31 g/ha ([17]; 31 g ai/ha): 0%; pest or weed control at 125 g/ha ([17]; 125 g ai/ha): 0%; pest or weed control at 31 g/ha ([18]; 31 g ai/ha): 0%; pest or weed control at 125 g/ha ([18]; 125 g ai/ha): 0%
